Source: the NIST ThermoML archive (doi:10.1021/je9003383)
± gives the expanded uncertainty stated by the source.

Assay: mn = molality of the nth substance listed, in mol/kg
Conditions: 293.15 K, 101 kPa, Liquid, Vibrating tube method

SMILES	mass density (m1 = 1.867)	mass density (m1 = 4.118)	mass density (m1 = 6.189)	mass density (m1 = 8.119)	mass density (m1 = 10.03)	mass density (m1 = 12.1)	mass density (m1 = 0.2628)	mass density (m1 = 0.4689)	mass density (m1 = 0.7153)	mass density (m1 = 0.9675)	mass density (m1 = 1.268)	mass density (m1 = 1.448)
CN(CCO)CCO [N-methyldiethanolamine] + O	1014.8 ± 1 kg/m3	1029.6 ± 1 kg/m3	1038.8 ± 1 kg/m3	1044.8 ± 1 kg/m3	1048.6 ± 1.1 kg/m3	1051.6 ± 1.1 kg/m3						
C1CNCCN1 [piperazine] + O							999.1 ± 1 kg/m3	999.8 ± 1 kg/m3	1000.8 ± 1 kg/m3	1001.8 ± 1 kg/m3	1003.1 ± 1 kg/m3	1004 ± 1 kg/m3
